Measured values taken from US11491175B2, “Synergistic bioactive compositions for enhancing cellular energy” (CELAGENEX RESEARCH (INDIA) PVT. LTD., priority 2019, dated 2022).
Several values for one entry are separate records, joined by “and”; a condition that tells them apart may be missing. Equal values may be shown once.

Experiments:
HepG2 cells = assay: Estimation of cellular respiration by measuring cellular ATP levels in HepG2 cells; format: cell-based, Human; conditions: for Cellular ATP / Percentage enhancement of cellular ATP levels over control: HepG2, 2 hours treatment
Description: The test substances were evaluated for their in vitro effect on cellular energy by measuring cellular ATP levels in human Hepatocytes (HepG2) cell line.
HepG2 cells were trypsinized from stock culture flasks and the cell count was adjusted to 1.0×10^5 cells/ml to obtain a cell suspension that was seeded into a 96-well plate. […] After 2 hours of treatment, the plate was washed with phosphate buffer saline. The cellular ATP levels determination was performed according to the instructions given in the kit manual (SIGMA, #MAK190). At the end of the experiment, the optical density was read at 570 nm using microplate reader. From the absorbance values, the cellular ATP levels were estimated using kit protocol and the concentration of cellular ATP in treated groups were determined in comparison to the control groups.

[1] = test system: HepG2 (Human Hepatocyte) cell line; assay: In vitro cytotoxicity by MTT colorimetric assay on HepG2 cell line; format: cell-based; conditions: for % Inhibition: 72 hours incubation
Description: The in vitro cytotoxicity study was performed on HepG2 (Human Hepatocyte) cell line to find a nontoxic concentration of the test substances by MTT colorimetric assay and evaluate their potential on cellular respiration by measuring cellular ATP levels.
About 10 mg of all the test substances (as indicated in Table 1) were separately dissolved with 100 μl of Dimethyl sulfoxide (DMSO) and volume was made up with Dulbecco's Modified Eagle Medium-High glucose (DMEM-HG) supplemented with 2% inactivated Fetal Bovine Serum (FBS) to obtain a stock solution of 1 mg/ml concentration and sterilized by 0.22p, syringe filtration. Serial two-fold dilutions were prepared from the stock for carrying out further studies.
The monolayer cell culture was trypsinized and the cell count was adjusted to 1.0×10^5 cells/ml using Ham's F12 medium containing 10% FBS to obtain a cell suspension. To each well of the 96 well microtitre plate, 0.1 ml of the diluted cell suspension was added. After 24 hours, when a partial monolayer was formed, the supernatant was flicked off, the monolayer was washed once with medium and 100 μl of different concentrations of test substances were added. The plate was then incubated at 37° C. for 72 hours in a 5% CO2 atmosphere, and microscopic examination was carried out and observations were noted every 24 hours.
After 72 hours of incubation, the drug solutions in the wells were discarded and 50 μl of MTT in PBS was added to each well. The plate was gently shaken and incubated for 3 hr at 37° C. in a 5% CO2 atmosphere. The supernatant was removed and 100 μl of 2-propanol was added and the plate was gently shaken to solubilize the formed formazan. The absorbance was measured using a microplate reader at a wavelength of 540 nm. The percentage growth inhibition was calculated using the standard formula. The concentration of test substances needed to inhibit the growth of the cell by 50% i.e., CTC50 values were generated from the dose-response curves.

[2] = substance alone (IMP 500 μg/ml, NMN 250 μg/ml, IMP + NMN 500 μg/ml, H2O2 20 μM)
[3] = along with H2O2 (20 μM) (IMP 500 μg/ml, NMN 250 μg/ml, IMP + NMN 500 + 250 μg/ml)

Row | Compound | Cellular ATP (HepG2 cells; [2]) [nmol] | Cellular ATP (HepG2 cells; [3]) [nmol] | Percentage enhancement of cellular ATP levels over control (HepG2 cells; [3]) [%] | Percentage enhancement of cellular ATP levels over control (HepG2 cells; substance alone (IMP 500 μg/ml, NMN 250 μg/ml, IMP + NMN 2:1 500 μg/ml), over hydrogen peroxide control) [%] | Percentage enhancement of cellular ATP levels over control (HepG2 cells; substance alone (IMP 500 μg/ml, NMN 250 μg/ml, IMP + NMN 2:1 500 μg/ml), over hydrogen peroxide control, listed as G4) [%] | cellular ATP levels (in words) (HepG2 cells; HepG2, in combination with Hydrogen peroxide (20 μM)) | % Inhibition ([1]; test conc. 62.5 μg/ml) [%] | % Inhibition ([1]; test conc. 125 μg/ml) [%] | % Inhibition ([1]; test conc. 250 μg/ml) [%] | % Inhibition ([1]; test conc. 500 μg/ml) [%] | % Inhibition ([1]; test conc. 1000 μg/ml) [%] | CTC 50 ([1]; 72 hours, concentration needed to inhibit cell growth by 50%)
1 | Hydrogen Peroxide [Composition G2] | 0.86 ± 0.02 | – | – | – | – | – | – | – | – | – | – | –
2 | NC(=O)c1ccc[n+]([C@@H]2O[C@H](COP(=O)([O-])O)[C@@H](O)[C@H]2O)c1 [NMN, β-Nicotinamide mononucleotide] | 4.43 ± 0.23 | 8.28 ± 0.65 | 29.01 ± 4.25 | 13.97±1.25 | 13.97 ± 1.25 | increased the cellular ATP levels significantly | 2.26 ± 1.49 | 21.59 ± 1.89 | 30.51 ± 0.38 | 59.95 ± 1.78 | 76.59 ± 0.54 | 415 ± 8.99 µg/mL and 415.92 ± 8.99 µg/mL
